# Measurements: PubChem BioAssay (NCI)
#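 Exposure lasted 48 hours, with cells grown in 96-well plates and compounds tested at five concentrations. At the GI50, growth is halved. TGI denotes the concentration required for complete inhibition of growth.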
# What was measured:
# Test in all cases: NCI anticancer screen, dose series, 48 h
# TK-10 renal = tested on: TK-10 renal
# UACC-62 melanoma = tested on: UACC-62 melanoma
# HS 578T breast = tested on: HS 578T breast
# MALME-3M melanoma = tested on: MALME-3M melanoma
# MOLT-4 leukemia = tested on: MOLT-4 leukemia
# SF-539 CNS = tested on: SF-539 CNS
# HCT-116 colon = tested on: HCT-116 colon
# DU-145 prostate = tested on: DU-145 prostate
# MCF7 breast = tested on: MCF7 breast
# 786-0 renal = tested on: 786-0 renal
# NCI-H460 lung = tested on: NCI-H460 lung
# RPMI-8226 leukemia = tested on: RPMI-8226 leukemia
# KM12 colon = tested on: KM12 colon
# CAKI-1 renal = tested on: CAKI-1 renal
# UO-31 renal = tested on: UO-31 renal
# SK-MEL-5 melanoma = tested on: SK-MEL-5 melanoma
# SK-MEL-28 melanoma = tested on: SK-MEL-28 melanoma
# SW-620 colon = tested on: SW-620 colon
# OVCAR-5 ovarian = tested on: OVCAR-5 ovarian
# BT-549 breast = tested on: BT-549 breast
# SF-268 CNS = tested on: SF-268 CNS
# HCT-15 colon = tested on: HCT-15 colon
# NCI-H226 lung = tested on: NCI-H226 lung
# MDA-MB-468 breast = tested on: MDA-MB-468 breast
# A498 renal = tested on: A498 renal
# SNB-19 CNS = tested on: SNB-19 CNS
# HCC-2998 colon = tested on: HCC-2998 colon
# SF-295 CNS = tested on: SF-295 CNS
# ACHN renal = tested on: ACHN renal
# M14 melanoma = tested on: M14 melanoma
# SK-MEL-2 melanoma = tested on: SK-MEL-2 melanoma
# HT29 colon = tested on: HT29 colon
# T-47D breast = tested on: T-47D breast
# OVCAR-4 ovarian = tested on: OVCAR-4 ovarian
# NCI-H23 lung = tested on: NCI-H23 lung
# SNB-75 CNS = tested on: SNB-75 CNS
# MDA-MB-435 = tested on: MDA-MB-435
# SK-OV-3 ovarian = tested on: SK-OV-3 ovarian
# EKVX NSCLC = tested on: EKVX NSCLC
# HOP-62 NSCLC = tested on: HOP-62 NSCLC
# OVCAR-3 ovarian = tested on: OVCAR-3 ovarian
# SR leukemia = tested on: SR leukemia
# MDA-MB-231 breast = tested on: MDA-MB-231 breast
# K-562 leukemia = tested on: K-562 leukemia
# OVCAR-8 ovarian = tested on: OVCAR-8 ovarian
# HOP-92 NSCLC = tested on: HOP-92 NSCLC
# CCRF-CEM leukemia = tested on: CCRF-CEM leukemia
# IGROV1 ovarian = tested on: IGROV1 ovarian
# UACC-257 melanoma = tested on: UACC-257 melanoma
# PC-3 prostate = tested on: PC-3 prostate
# LOX IMVI melanoma = tested on: LOX IMVI melanoma
# SN12C renal = tested on: SN12C renal
# COLO 205 colon = tested on: COLO 205 colon
# HL-60(TB) leukemia = tested on: HL-60(TB) leukemia
# RXF 393 renal = tested on: RXF 393 renal
# NCI-H522 lung = tested on: NCI-H522 lung
# A549 NSCLC = tested on: A549 NSCLC
# U251 CNS = tested on: U251 CNS
smiles,measurement,setting,value
N#CC1=C(c2cccs2)Nc2c(c(-c3ccccc3)nn2-c2ccccc2)C12C(=O)Nc1ccccc12 (stereo unspecified),GI50,TK-10 renal,13.6 µM
same,TGI,TK-10 renal,31.1 µM
same,GI50,UACC-62 melanoma,13.7 µM
same,TGI,UACC-62 melanoma,27.9 µM
same,GI50,HS 578T breast,14.4 µM
same,TGI,HS 578T breast,44.9 µM
same,GI50,MALME-3M melanoma,15.9 µM
same,TGI,MALME-3M melanoma,30 µM
same,GI50,MOLT-4 leukemia,12 µM
same,TGI,MOLT-4 leukemia,41.1 µM
same,GI50,SF-539 CNS,15.2 µM
same,TGI,SF-539 CNS,31.7 µM
same,GI50,HCT-116 colon,11.9 µM
same,TGI,HCT-116 colon,28.1 µM
same,GI50,DU-145 prostate,20.3 µM
same,TGI,DU-145 prostate,46.6 µM
same,GI50,MCF7 breast,12.8 µM
same,TGI,MCF7 breast,26.5 µM
same,GI50,786-0 renal,15.6 µM
same,TGI,786-0 renal,31.1 µM
same,GI50,NCI-H460 lung,11.3 µM
same,TGI,NCI-H460 lung,24.1 µM
same,GI50,RPMI-8226 leukemia,8.6 µM
same,TGI,RPMI-8226 leukemia,83.7 µM
same,GI50,KM12 colon,5.13 µM
same,TGI,KM12 colon,20.4 µM
same,GI50,CAKI-1 renal,15.7 µM
same,TGI,CAKI-1 renal,35 µM
same,GI50,UO-31 renal,9.9 µM
same,TGI,UO-31 renal,> 100 µM
same,GI50,SK-MEL-5 melanoma,13.7 µM
same,TGI,SK-MEL-5 melanoma,29.4 µM
same,GI50,SK-MEL-28 melanoma,14.9 µM
same,TGI,SK-MEL-28 melanoma,29.3 µM
same,GI50,SW-620 colon,9.57 µM
same,TGI,SW-620 colon,28.6 µM
same,GI50,OVCAR-5 ovarian,19.8 µM
same,TGI,OVCAR-5 ovarian,45.6 µM
same,GI50,BT-549 breast,5.86 µM
same,TGI,BT-549 breast,21 µM
same,GI50,SF-268 CNS,18.9 µM
same,TGI,SF-268 CNS,> 100 µM
same,GI50,HCT-15 colon,8.92 µM
same,TGI,HCT-15 colon,24 µM
same,GI50,NCI-H226 lung,16.9 µM
same,TGI,NCI-H226 lung,42.5 µM
same,GI50,MDA-MB-468 breast,11.4 µM
same,TGI,MDA-MB-468 breast,32.4 µM
same,GI50,A498 renal,17.8 µM
same,TGI,A498 renal,35.3 µM
same,GI50,SNB-19 CNS,9.25 µM
same,TGI,SNB-19 CNS,> 100 µM
same,GI50,HCC-2998 colon,14 µM
same,TGI,HCC-2998 colon,35.6 µM
same,GI50,SF-295 CNS,12.8 µM
same,TGI,SF-295 CNS,33.3 µM
same,GI50,ACHN renal,12.6 µM
same,TGI,ACHN renal,26.4 µM
same,GI50,M14 melanoma,15 µM
same,TGI,M14 melanoma,32.7 µM
same,GI50,SK-MEL-2 melanoma,15.8 µM
same,TGI,SK-MEL-2 melanoma,38.3 µM
same,GI50,HT29 colon,14 µM
same,TGI,HT29 colon,28.3 µM
same,GI50,T-47D breast,18.2 µM
same,TGI,T-47D breast,69.2 µM
same,GI50,OVCAR-4 ovarian,8.25 µM
same,TGI,OVCAR-4 ovarian,27 µM
same,GI50,NCI-H23 lung,12.9 µM
same,TGI,NCI-H23 lung,31.8 µM
same,GI50,SNB-75 CNS,8.48 µM
same,TGI,SNB-75 CNS,30.8 µM
same,GI50,MDA-MB-435,17.8 µM
same,TGI,MDA-MB-435,37.2 µM
same,GI50,SK-OV-3 ovarian,13.7 µM
same,TGI,SK-OV-3 ovarian,33.2 µM
same,GI50,EKVX NSCLC,11.2 µM
same,TGI,EKVX NSCLC,33.9 µM
same,GI50,HOP-62 NSCLC,17 µM
same,TGI,HOP-62 NSCLC,44.1 µM
same,GI50,OVCAR-3 ovarian,20.9 µM
same,TGI,OVCAR-3 ovarian,73.2 µM
same,GI50,SR leukemia,12.7 µM
same,TGI,SR leukemia,58.1 µM
same,GI50,MDA-MB-231 breast,16.4 µM
same,TGI,MDA-MB-231 breast,33.8 µM
same,GI50,K-562 leukemia,6.17 µM
same,TGI,K-562 leukemia,38.9 µM
same,GI50,OVCAR-8 ovarian,14.8 µM
same,TGI,OVCAR-8 ovarian,29.5 µM
same,GI50,HOP-92 NSCLC,3.52 µM
same,TGI,HOP-92 NSCLC,15 µM
same,GI50,CCRF-CEM leukemia,7.52 µM
same,TGI,CCRF-CEM leukemia,46.8 µM
same,GI50,IGROV1 ovarian,16.2 µM
same,TGI,IGROV1 ovarian,34.4 µM
same,GI50,UACC-257 melanoma,18.1 µM
same,TGI,UACC-257 melanoma,48.3 µM
same,GI50,PC-3 prostate,8.38 µM
same,TGI,PC-3 prostate,24.2 µM
same,GI50,LOX IMVI melanoma,14.4 µM
same,TGI,LOX IMVI melanoma,32.4 µM
same,GI50,SN12C renal,19.6 µM
same,TGI,SN12C renal,> 100 µM
same,GI50,COLO 205 colon,15.5 µM
same,TGI,COLO 205 colon,34.9 µM
same,GI50,HL-60(TB) leukemia,5.75 µM
same,TGI,HL-60(TB) leukemia,45.6 µM
same,GI50,RXF 393 renal,4.91 µM
same,TGI,RXF 393 renal,21.1 µM
same,GI50,NCI-H522 lung,2.99 µM
same,TGI,NCI-H522 lung,15.8 µM
same,GI50,A549 NSCLC,10.2 µM
same,TGI,A549 NSCLC,23 µM
same,GI50,U251 CNS,6.23 µM
same,TGI,U251 CNS,20.6 µM
